Each block holds one compound with its values, some of them ahead of it.
Key:
Collagen biosynthesis = Collagen biosynthesis inhibiting activity (collagen content of the uterus); type: in vivo, rats of SD strain; settings: female SD rats; for Collagen content of uterus / Body weight of rats: groups of 3; for Collagen content of uterus: control 1.64 ± 0.3; for Body weight of rats: control 73 ± 6
Experimental: (2) Collagen biosynthesis inhibiting activity
Basically in accordance with the method of R. A. Salvador et al. [Arch. Biochem. Biophys. 174, 382 (1976)], 0.2 mg/kg of each test compound was intraperitoneally administered to rats of SD strain (.female., 3 weeks old) once daily for 6 consecutive days and the collagen content of the uterus was compared with the control value.
*Rats were used in groups of 3. Initial body weights = 41 ± 2 ~

[1] = molecular target: T1, Protocollagen proline hydroxylase (Gallus gallus, UniProt P16924); assay: Protocollagen proline hydroxylase-inhibiting activity; type: biochemical; settings: partially purified chick embryo enzyme, 100 μg as protein, substrate (Pro-Pro-Gly)5.4H2O; for inhibition at 20 µM: Concentration 20 μM
T1 construct: partially purified enzyme preparation derived from chick embryos; from tissue; host or cells: chick embryos
T1 sequence (P16924 1-516): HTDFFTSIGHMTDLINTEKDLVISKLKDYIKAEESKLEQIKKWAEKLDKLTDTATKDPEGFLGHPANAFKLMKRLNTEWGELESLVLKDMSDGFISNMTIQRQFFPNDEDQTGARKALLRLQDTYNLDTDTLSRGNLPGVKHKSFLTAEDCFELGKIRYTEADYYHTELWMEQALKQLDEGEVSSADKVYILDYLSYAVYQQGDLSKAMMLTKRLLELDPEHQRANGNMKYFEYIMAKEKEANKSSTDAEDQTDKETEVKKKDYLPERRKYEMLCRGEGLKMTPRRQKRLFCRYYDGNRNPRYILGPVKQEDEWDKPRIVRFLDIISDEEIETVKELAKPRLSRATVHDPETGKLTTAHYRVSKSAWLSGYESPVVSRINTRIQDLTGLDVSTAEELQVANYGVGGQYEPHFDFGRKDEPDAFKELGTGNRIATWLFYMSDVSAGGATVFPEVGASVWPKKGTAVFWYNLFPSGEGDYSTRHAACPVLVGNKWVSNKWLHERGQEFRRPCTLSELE
T1 sequence (P09102 23-515 partner): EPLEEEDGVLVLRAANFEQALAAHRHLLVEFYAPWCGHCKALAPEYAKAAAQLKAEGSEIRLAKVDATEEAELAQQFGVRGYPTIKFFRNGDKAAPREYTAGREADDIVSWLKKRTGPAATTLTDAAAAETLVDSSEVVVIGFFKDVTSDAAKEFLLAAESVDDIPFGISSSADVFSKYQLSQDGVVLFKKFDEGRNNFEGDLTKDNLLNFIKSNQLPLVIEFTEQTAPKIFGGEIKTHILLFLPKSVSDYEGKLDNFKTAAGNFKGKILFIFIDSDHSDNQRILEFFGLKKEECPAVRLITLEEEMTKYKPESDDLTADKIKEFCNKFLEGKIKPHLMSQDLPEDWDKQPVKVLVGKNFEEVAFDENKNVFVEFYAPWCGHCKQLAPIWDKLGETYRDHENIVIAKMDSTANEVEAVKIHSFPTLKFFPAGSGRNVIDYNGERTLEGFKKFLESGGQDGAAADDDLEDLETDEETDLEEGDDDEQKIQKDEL
Experimental: (1) Protocollagen proline hydroxylase-inhibiting activity
This inhibitory activity was assayed by the procedure of R. E. Rhoads et al. (Methods in Enzymology XVII B, 306 (1971)) using a partially purified enzyme preparation derived from chick embryos in accordance with the methods of K. I. Kivirriko et al. and J. Halme et al. (J. Biol. Chem. 242, 4007 (1967) and Biochem. Biophys. Acta 198, 460 (1967), and, as a substrate, (Pro-Pro-Gly)5.4H2 O (Protein Research Foundation, Osaka). In this assay, the partially purified enzyme preparation was used in the amount of 100 μg as protein. The results are shown in Table 1.

[2] = Toxicity, gastric gavage to rats in a 5-week regimen; type: in vivo; settings: 2500 mg/kg/day
Description: The compound (I) is very low in toxicity.

[3] = 17β-Estradiol alone, 0.2 mg/kg intraperitoneally once daily for 6 consecutive days
[4] = given with 17β-Estradiol, 0.2 mg/kg of each test compound intraperitoneally once daily for 6 consecutive days

SMILES: C[C@]12CC[C@@H]3c4ccc(O)cc4CC[C@H]3[C@@H]1CC[C@@H]2O [17β-Estradiol, reference compound]
Collagen content of uterus (Collagen biosynthesis; [3]): 3.45 ± 0.11
Body weight of rats (Collagen biosynthesis; [3]): 73 ± 3 g

inhibition at 25 µM ([1]; Concentration 25 μM): 68%
SMILES: COC1=C(OC)C(=O)C(CCCCO)=C(C)C1=O [A:CH2 n:3 R:H]

inhibition at 20 µM [1]: 37%
SMILES: COC1=C(OC)C(=O)C(CCCCCCCCCCO)=C(C)C1=O [A:CH2 n:9 R:H, 2,3-dimethoxy-5-methyl-6-(10'-hydroxydecyl)-1,4-benzoquinone]
Collagen content of uterus (Collagen biosynthesis; [4]): 2.94 ± 0.28
Body weight of rats (Collagen biosynthesis; [4]): 69 ± 6 g
Degree of inhibition (Collagen biosynthesis; given with 17β-Estradiol, 0.2 mg/kg of each test compound intraperitoneally once daily for 6 consecutive days, formula in footnote ** (drawing 3)): 28
Abnormalities in body weight, food intake, urinalysis and blood tests [2]: no abnormalities in body weight, food intake, urinalysis and blood tests

inhibition at 50 µM ([1]; Concentration 50 μM): 47%
SMILES: COC(=O)CCCC1=C(C)C(=O)C(OC)=C(OC)C1=O [A:CO n:3 R:CH3]

inhibition at 20 µM [1]: 57%
SMILES: COC1=C(OC)C(=O)C(CCCC(=O)O)=C(C)C1=O [A:CO n:3 R:H]

inhibition at 20 µM [1]: 35%
SMILES: COC1=C(OC)C(=O)C(CCCCCCCC(=O)O)=C(C)C1=O [A:CO n:7 R:H]

inhibition at 20 µM [1]: 21%
SMILES: COC(=O)CCCCCCCCCC1=C(C)C(=O)C(OC)=C(OC)C1=O [A:CO n:9 R:CH3]

inhibition at 20 µM [1]: 31%
SMILES: COC1=C(OC)C(=O)C(CCCCCCCCCC(=O)O)=C(C)C1=O [A:CO n:9 R:H]
